Where a SMILES comes first, the peptide text is derived from it.
Key:
Growth Hormone secretion [1] = assay: Growth Hormone secretion in female rats after subcutaneous GRF analog; type: in vivo; conditions: female Sprague-Dawley rats; 10 μg/rat subcutaneous; plasma 0-60 minutes
Text: (§1) Sprague-Dawley rats (female, weighting from 250 to 300 g) were obtained from Charles River Inc. Animals were used according to a protocol of the Animal Care Committee along with the principles of the Guide for the Care and Use of Experimental Animals of the Canadian Council on Animal Care. The animals were maintained on standard laboratory chow under a 12:12 light:dark cycle. They were kept in groups of 4 rats per cage.
The animals were anesthetized with isoflurane 2.5%. A mid-section opening was made in the neck to expose the carotid artery. The carotid artery was canulated with polypropylene tubing (PE-50) to allow blood withdrawal. After surgical preparation, rats received a subcutaneous injection of GRF analog (10 μg/rat dissolved in 20 mM AcONa+5% mannitol at pH 5). For pharmacodynamics studies, blood samples (400 μL) were collected from 4 to 8 animals per group per time point. Blood samples (400 μl) were collected via the carotid catheter at 0, 10, 20, 30, 45 and 60 minutes after drug injection. Blood was placed into microtainer pre-treated with K3EDTA and immediately centrifuged at 13,000 RPM in a desktop centrifuge for 2 minutes. The plasma was collected and placed into a screw cap Eppendorf™ and quick frozen in liquid nitrogen. The samples were then kept at −80° C. until assayed. Determination of GH levels was performed as described below.
(§2) Rat and mouse plasma samples were vortexed carefully and centrifuged at 9,000 RPM for 2 min at 4° C. The dosage of GH levels was performed using the Rat/Mouse Growth Hormone ELISA kit from Millipore (Cat. # EZRMGH-45K). Sample supernatants were first diluted 20-fold with the GH ELISA assay buffer, and 10 μl of this dilution was added to the ELISA plate with 90 μl of GH EIA assay buffer. The remaining of the procedure was performed according to the manufacturer's instructions, and the data obtained were analyzed using GraphPad Prism™ software.
(§3) The GRF analogs described herein were tested for their ability to induce GH release in female mice and rats. […] The data are presented in Tables III (mice) and IV-V (rats).

Growth Hormone secretion [2] = assay: Growth Hormone secretion in female mice after subcutaneous GRF analog; type: in vivo; conditions: female CD-1 mice; 10 μg/mouse subcutaneous; plasma 10 minutes after injection
Text: as §1, with “CD-1 mice” for “Sprague-Dawley rats”, “20” for “250”, “25” for “300”, “mice” for “rats”
At the day of the experiment, mice received a subcutaneous injection of GRF analog (10 μg/mouse dissolved in 20 mM sodium acetate (AcONa)+5% mannitol at pH 5). 10 minutes after injection, the mice were anesthezied with isolufrane. Blood samples (500 μl) were obtained by intra-cardiac puncture. Blood was placed into microtainer pre-treated with K3EDTA and immediately centrifuged at 13,000 RPM in a desktop centrifuge for 2 minutes. The plasma was collected and placed into a screwcap Eppendorf™ tube and quick frozen in liquid nitrogen. The samples were then kept at −80° C. until assayed. Determination of GH levels was performed as described below.
as §2, §3

SMILES: CC[C@H](C)[C@H](NC(=O)[C@H](C)NC(=O)[C@H](CC(=O)O)NC(=O)[C@@H](C)NC(=O)[C@@H](N)Cc1ccc(O)cc1)C(=O)N[C@@H](Cc1ccccc1)C(=O)N[C@H](C(=O)N[C@@H](CC(=O)O)C(=O)N[C@@H](CO)C(=O)N[C@@H](Cc1ccc(O)cc1)C(=O)N[C@@H](CCCNC(=N)N)C(=O)N[C@@H](CCCCN)C(=O)N[C@H](C(=O)N[C@@H](CC(C)C)C(=O)N[C@@H](C)C(=O)N[C@@H](CCC(N)=O)C(=O)N[C@@H](CC(C)C)C(=O)N[C@@H](CCCCN)C(=O)N[C@@H](C)C(=O)N[C@@H](CCCNC(=N)N)C(=O)N[C@@H](CCC(N)=O)C(=O)N[C@@H](CC(=O)O)C(=O)N[C@@H](CC(C)C)C(=O)N[C@@H](CC(C)C)C(=O)N[C@@H](C)C(=O)N[C@@H](CCCNC(=N)N)C(=O)N[C@@H](C)C(=O)N[C@@H](C)C(=O)N[C@@H](CCCNC(=N)N)C(=O)N[C@@H](C)C(=O)N[C@@H](C)C(=O)N[C@@H](CCCNC(=N)N)C(N)=O)C(C)C)[C@@H](C)O [SEQ ID NO: 30, Y-a-DAIFTDSYRKVLAQLKARQDLLARAARAAR-NH2] (HELM PEPTIDE1{Y.[dA].D.A.I.F.T.D.S.Y.R.K.V.L.A.Q.L.K.A.R.Q.D.L.L.A.R.A.A.R.A.A.R.[am]}$$$$V2.0)
- Mean AUC (GH Area Under the curve, GH concentration over time) (Growth Hormone secretion [1]): 12282
- Mean Cmax (ng/ml) of Growth Hormone secretion (Growth Hormone secretion [1]): 664.1 ng/mL
- GH levels 10 min (Growth Hormone secretion [2]): 493.3 ng/mL

SMILES: CC/C=C/CC(=O)N[C@@H](Cc1ccc(O)cc1)C(=O)N[C@@H](C)C(=O)N[C@@H](CC(=O)O)C(=O)N[C@@H](C)C(=O)N[C@H](C(=O)N[C@@H](Cc1ccccc1)C(=O)N[C@H](C(=O)N[C@@H](CC(=O)O)C(=O)N[C@@H](CO)C(=O)N[C@@H](Cc1ccc(O)cc1)C(=O)N[C@@H](CCCNC(=N)N)C(=O)N[C@@H](CCCCN)C(=O)N[C@H](C(=O)N[C@@H](CC(C)C)C(=O)N[C@@H](C)C(=O)N[C@@H](CCC(N)=O)C(=O)N[C@@H](CC(C)C)C(=O)N[C@@H](CO)C(=O)N[C@@H](C)C(=O)N[C@@H](CCCNC(=N)N)C(=O)N[C@@H](CCC(N)=O)C(=O)N[C@@H](CC(=O)O)C(=O)N[C@H](C(=O)N[C@@H](CC(C)C)C(=O)N[C@@H](C)C(=O)N[C@@H](CCCNC(=N)N)C(N)=O)[C@@H](C)CC)C(C)C)[C@@H](C)O)[C@@H](C)CC [SEQ ID NO: 45, Trans-3-hexenoyl-YADAIFTDSYRKVLAQLSARQDILAR-NH2] (HELM PEPTIDE1{[CC/C=C/CC(=O)[*:2]].Y.A.D.A.I.F.T.D.S.Y.R.K.V.L.A.Q.L.S.A.R.Q.D.I.L.A.R.[am]}$$$$V2.0)
- Mean AUC (GH Area Under the curve, GH concentration over time) (Growth Hormone secretion [1]): 1953
- Mean Cmax (ng/ml) of Growth Hormone secretion (Growth Hormone secretion [1]): 78.8 ng/mL
- GH levels 10 min (Growth Hormone secretion [2]): 102.1 ng/mL

SMILES: CC/C=C/CC(=O)N[C@@H](Cc1ccc(O)cc1)C(=O)N[C@@H](C)C(=O)N[C@@H](CC(=O)O)C(=O)N[C@@H](C)C(=O)N[C@H](C(=O)N[C@@H](Cc1ccccc1)C(=O)N[C@H](C(=O)N[C@@H](CC(=O)O)C(=O)N[C@@H](CO)C(=O)N[C@@H](Cc1ccc(O)cc1)C(=O)N[C@@H](CCCNC(=N)N)C(=O)N[C@@H](CCCCN)C(=O)N[C@H](C(=O)N[C@@H](CC(C)C)C(=O)N[C@@H](C)C(=O)N[C@@H](CCC(N)=O)C(=O)N[C@@H](CC(C)C)C(=O)N[C@@H](CO)C(=O)N[C@@H](C)C(=O)N[C@@H](CCCNC(=N)N)C(=O)N[C@@H](CCC(N)=O)C(=O)N[C@@H](CC(=O)O)C(=O)N[C@H](C(=O)N[C@@H](CCSC)C(=O)N[C@@H](CO)C(=O)N[C@@H](CCCNC(=N)N)C(N)=O)[C@@H](C)CC)C(C)C)[C@@H](C)O)[C@@H](C)CC [SEQ ID NO: 44, Trans-3-hexenoyl-YADAIFTDSYRKVLAQLSARQDIMSR-NH2] (HELM PEPTIDE1{[CC/C=C/CC(=O)[*:2]].Y.A.D.A.I.F.T.D.S.Y.R.K.V.L.A.Q.L.S.A.R.Q.D.I.M.S.R.[am]}$$$$V2.0)
- Mean AUC (GH Area Under the curve, GH concentration over time) (Growth Hormone secretion [1]): 984
- Mean Cmax (ng/ml) of Growth Hormone secretion (Growth Hormone secretion [1]): 44.2 ng/mL
- GH levels 10 min (Growth Hormone secretion [2]): 15.2 ng/mL

SMILES: CC/C=C/CC(=O)N[C@@H](Cc1ccc(O)cc1)C(=O)N[C@@H](C)C(=O)N[C@@H](CC(=O)O)C(=O)N[C@@H](C)C(=O)N[C@H](C(=O)N[C@@H](Cc1ccccc1)C(=O)N[C@H](C(=O)N[C@@H](CC(=O)O)C(=O)N[C@@H](CO)C(=O)N[C@@H](Cc1ccc(O)cc1)C(=O)N[C@@H](CCCNC(=N)N)C(=O)N[C@@H](CCCCN)C(=O)N[C@H](C(=O)N[C@@H](CC(C)C)C(=O)N[C@@H](C)C(=O)N[C@@H](CCC(N)=O)C(=O)N[C@@H](CC(C)C)C(=O)N[C@@H](CO)C(=O)N[C@@H](C)C(=O)N[C@@H](CCCNC(=N)N)C(=O)N[C@@H](CCC(N)=O)C(=O)N[C@@H](CC(=O)O)C(=O)N[C@H](C(=O)N[C@@H](CC(C)C)C(=O)N[C@@H](CO)C(=O)N[C@H](CCCNC(=N)N)C(N)=O)[C@@H](C)CC)C(C)C)[C@@H](C)O)[C@@H](C)CC [SEQ ID NO: 46, Trans-3-hexenoyl-YADAIFTDSYRKVLAQLSARQDILS-r-NH2] (HELM PEPTIDE1{[CC/C=C/CC(=O)[*:2]].Y.A.D.A.I.F.T.D.S.Y.R.K.V.L.A.Q.L.S.A.R.Q.D.I.L.S.[dR].[am]}$$$$V2.0)
- Mean AUC (GH Area Under the curve, GH concentration over time) (Growth Hormone secretion [1]): 1453
- Mean Cmax (ng/ml) of Growth Hormone secretion (Growth Hormone secretion [1]): 57.3 ng/mL
- GH levels 10 min (Growth Hormone secretion [2]): 10.6 ng/mL

SMILES: CC[C@H](C)[C@H](NC(=O)[C@H](C)NC(=O)[C@H](CC(=O)O)NC(=O)[C@@H](C)NC(=O)[C@@H](N)Cc1ccc(O)cc1)C(=O)N[C@@H](Cc1ccccc1)C(=O)N[C@H](C(=O)N[C@@H](CC(=O)O)C(=O)N[C@@H](CO)C(=O)N[C@@H](Cc1ccc(O)cc1)C(=O)N[C@@H](CCCNC(=N)N)C(=O)N[C@@H](CCCCN)C(=O)N[C@H](C(=O)N[C@@H](CC(C)C)C(=O)N[C@@H](C)C(=O)N[C@@H](CCC(N)=O)C(=O)N[C@@H](CC(C)C)C(=O)N[C@@H](CCCCN)C(=O)N[C@@H](CC(C)C)C(=O)N[C@@H](CCCNC(=N)N)C(=O)N[C@@H](CCC(N)=O)C(=O)N[C@@H](CC(=O)O)C(=O)N[C@H](C(=O)N[C@@H](CC(C)C)C(=O)N[C@@H](C)C(=O)N[C@@H](CCCNC(=N)N)C(=O)N[C@@H](C)C(=O)N[C@@H](C)C(=O)N[C@@H](CCCNC(=N)N)C(=O)N[C@@H](C)C(=O)N[C@@H](C)C(=O)N[C@@H](CCCNC(=N)N)C(N)=O)[C@@H](C)CC)C(C)C)[C@@H](C)O [SEQ ID NO: 29, Y-a-DAIFTDSYRKVLAQLKLRQDILARAARAAR-NH2] (HELM PEPTIDE1{Y.[dA].D.A.I.F.T.D.S.Y.R.K.V.L.A.Q.L.K.L.R.Q.D.I.L.A.R.A.A.R.A.A.R.[am]}$$$$V2.0)
- Mean AUC (GH Area Under the curve, GH concentration over time) (Growth Hormone secretion [1]): 9442
- Mean Cmax (ng/ml) of Growth Hormone secretion (Growth Hormone secretion [1]): 466.7 ng/mL
- GH levels 10 min (Growth Hormone secretion [2]): 457.7 ng/mL

SMILES: CC/C=C/CC(=O)N[C@@H](Cc1ccc(O)cc1)C(=O)N[C@@H](C)C(=O)N[C@@H](CC(=O)O)C(=O)N[C@@H](C)C(=O)N[C@H](C(=O)N[C@@H](Cc1ccccc1)C(=O)N[C@H](C(=O)N[C@@H](CC(=O)O)C(=O)N[C@@H](CO)C(=O)N[C@@H](Cc1ccc(O)cc1)C(=O)N[C@@H](CCCNC(=N)N)C(=O)N[C@@H](CCCCN)C(=O)N[C@H](C(=O)N[C@@H](CC(C)C)C(=O)N[C@@H](C)C(=O)N[C@@H](CCC(N)=O)C(=O)N[C@@H](CC(C)C)C(=O)N[C@@H](CCCCN)C(=O)N[C@@H](C)C(=O)N[C@@H](CCCNC(=N)N)C(=O)N[C@@H](CCC(N)=O)C(=O)N[C@@H](CC(=O)O)C(=O)N[C@H](C(=O)N[C@@H](CC(C)C)C(=O)N[C@@H](C)C(=O)N[C@@H](CCCNC(=N)N)C(N)=O)[C@@H](C)CC)C(C)C)[C@@H](C)O)[C@@H](C)CC [SEQ ID NO: 20, Trans-3-hexenoyl-YADAIFTDSYRKVLAQLKARQDILAR-NH2] (HELM PEPTIDE1{[CC/C=C/CC(=O)[*:2]].Y.A.D.A.I.F.T.D.S.Y.R.K.V.L.A.Q.L.K.A.R.Q.D.I.L.A.R.[am]}$$$$V2.0)
- Mean AUC (GH Area Under the curve, GH concentration over time) (Growth Hormone secretion [1]): 966
- Mean Cmax (ng/ml) of Growth Hormone secretion (Growth Hormone secretion [1]): 31.7 ng/mL
- GH levels 10 min (Growth Hormone secretion [2]): 307.7 ng/mL

Reference: patent US8361964B2, “Growth hormone releasing factor (GRF) analogs and uses thereof” (Theratechnologies Inc., priority 2011, dated 2013)
